Results reported in ChEMBL document CHEMBL1201862, “PubChem BioAssay data set” (2004).
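Five compound concentrations were applied to cells in 96-well plates for 48 hours; endpoints were derived by simple linear interpolation of the resulting dose-response curve. Here, GI50 denotes the concentration required for 50% inhibition of growth.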 Active and inactive are the calls of the source. Rule as the data show it: active = GI50 up to about 1.1 µM and inactive = higher.

What was measured:
Assay in all cases: growth of human tumour cells (NCI), 48 h
DMS-114 = tested on: DMS-114
SNB-78 = tested on: SNB-78
HOP-18 = tested on: HOP-18
SF-539 = tested on: SF-539
MOLT-4 = tested on: MOLT-4
M19-MEL = tested on: M19-MEL
SN12C = tested on: SN12C
HT-29 = tested on: HT-29
SNB-75 = tested on: SNB-75
A549 = tested on: A549
A498 = tested on: A498
M14 = tested on: M14
HCT-116 = tested on: HCT-116
SW-620 = tested on: SW-620
HCT-15 = tested on: HCT-15
DMS-273 = tested on: DMS-273
TK-10 = tested on: TK-10
NCI-H23 = tested on: NCI-H23
SF-295 = tested on: SF-295
NCI-H460 = tested on: NCI-H460
RXF 393 = tested on: RXF 393
SK-MEL-28 = tested on: SK-MEL-28
LOX IMVI = tested on: LOX IMVI
K562 = tested on: K562
ACHN = tested on: ACHN
IGROV-1 = tested on: IGROV-1
CCRF-CEM = tested on: CCRF-CEM
KM12 = tested on: KM12
HL-60 = tested on: HL-60
LXFL 529 = tested on: LXFL 529
SF-268 = tested on: SF-268
UACC-257 = tested on: UACC-257
OVCAR-3 = tested on: OVCAR-3
OVCAR-8 = tested on: OVCAR-8
SK-MEL-2 = tested on: SK-MEL-2
Malme-3M = tested on: Malme-3M
SK-MEL-5 = tested on: SK-MEL-5
NCI-H226 = tested on: NCI-H226
OVCAR-4 = tested on: OVCAR-4
UACC-62 = tested on: UACC-62
SNB-19 = tested on: SNB-19
786-0 = tested on: 786-0
DLD-1 = tested on: DLD-1
OVCAR-5 = tested on: OVCAR-5
NCI-H522 = tested on: NCI-H522
HOP-62 = tested on: HOP-62
CAKI-1 = tested on: CAKI-1
RPMI-8226 = tested on: RPMI-8226
COLO 205 = tested on: COLO 205
KM-20L2 = tested on: KM-20L2
SK-OV-3 = tested on: SK-OV-3
U-251 = tested on: U-251
HOP-92 = tested on: HOP-92
SR = tested on: SR
UO-31 = tested on: UO-31

`CC1(C)OC(COP2OCCO2)[C@H](COP2OCCO2)O1` (some centres not stated) was tested, and the GI50 (DMS-114) was > 100 µM (inactive), the GI50 (SNB-78) was > 100 µM (inactive) and the GI50 (HOP-18) was > 100 µM (inactive). For the same compound, the GI50 (SF-539) was > 100 µM (inactive), the GI50 (MOLT-4) was > 100 µM (inactive) and the GI50 (M19-MEL) was > 100 µM (inactive). The GI50 (SN12C) was > 100 µM (inactive), the GI50 (HT-29) was > 100 µM (inactive) and the GI50 (SNB-75) was > 100 µM (inactive). For the same compound, the GI50 (A549) was > 100 µM (inactive), the GI50 (A498) was > 100 µM (inactive) and the GI50 (M14) was > 100 µM (inactive). For the same compound, the GI50 (HCT-116) was > 100 µM (inactive), the GI50 (SW-620) was > 100 µM (inactive) and the GI50 (HCT-15) was greater than 100 µM. The GI50 (DMS-273) was > 100 µM (inactive), the GI50 (TK-10) was > 100 µM (inactive) and the GI50 (NCI-H23) was > 100 µM (inactive). For the same compound, the GI50 (SF-295) was > 100 µM (inactive), the GI50 (NCI-H460) was > 100 µM (inactive) and the GI50 (RXF 393) was > 100 µM (inactive). The GI50 (SK-MEL-28) was > 100 µM (inactive), the GI50 (LOX IMVI) was > 100 µM (inactive) and the GI50 (K562) was > 100 µM (inactive). For the same compound, the GI50 (ACHN) was > 100 µM (inactive), the GI50 (IGROV-1) was 31 µM (inactive) and the GI50 (CCRF-CEM) was > 100 µM (inactive). The GI50 (KM12) was > 100 µM (inactive), the GI50 (HL-60) was > 100 µM (inactive) and the GI50 (LXFL 529) was > 100 µM (inactive). The GI50 (SF-268) was > 100 µM (inactive), the GI50 (UACC-257) was > 100 µM (inactive) and the GI50 (OVCAR-3) was > 100 µM (inactive). For the same compound, the GI50 (OVCAR-8) was > 100 µM (inactive), the GI50 (SK-MEL-2) was > 100 µM (inactive) and the GI50 (Malme-3M) was > 100 µM (inactive). The GI50 (SK-MEL-5) was > 100 µM (inactive), the GI50 (NCI-H226) was > 100 µM (inactive) and the GI50 (OVCAR-4) was > 100 µM (inactive). For the same compound, the GI50 (UACC-62) was > 100 µM (inactive).

With `OC12c3ccccc3C1(N1CCOCC1)CCCCC21OCCCO1` (configuration not stated) the GI50 (SNB-19) was > 100 µM (inactive), the GI50 (786-0) was > 100 µM (inactive) and the GI50 (DMS-114) was > 100 µM (inactive). The GI50 (SNB-78) was > 100 µM (inactive), the GI50 (HOP-18) was > 100 µM (inactive) and the GI50 (DLD-1) was > 100 µM (inactive). For the same compound, the GI50 (SF-539) was > 100 µM (inactive), the GI50 (MOLT-4) was > 100 µM (inactive) and the GI50 (SN12C) was > 100 µM (inactive). The GI50 (HT-29) was > 100 µM (inactive), the GI50 (SNB-75) was > 100 µM (inactive) and the GI50 (OVCAR-5) was > 100 µM (inactive). For the same compound, the GI50 (NCI-H522) was > 100 µM (inactive), the GI50 (HOP-62) was > 100 µM (inactive) and the GI50 (A549) was > 100 µM (inactive). For the same compound, the GI50 (CAKI-1) was > 100 µM (inactive), the GI50 (A498) was > 100 µM (inactive) and the GI50 (M14) was > 100 µM (inactive). For the same compound, the GI50 (HCT-116) was > 100 µM (inactive), the GI50 (HCT-15) was greater than 100 µM and the GI50 (DMS-273) was > 100 µM (inactive). The GI50 (TK-10) was > 100 µM (inactive), the GI50 (NCI-H23) was > 100 µM (inactive) and the GI50 (SF-295) was > 100 µM (inactive). For the same compound, the GI50 (NCI-H460) was > 100 µM (inactive), the GI50 (RXF 393) was > 100 µM (inactive) and the GI50 (SK-MEL-28) was > 100 µM (inactive). For the same compound, the GI50 (LOX IMVI) was > 100 µM (inactive), the GI50 (K562) was > 100 µM (inactive) and the GI50 (RPMI-8226) was > 100 µM (inactive). For the same compound, the GI50 (COLO 205) was > 100 µM (inactive), the GI50 (KM-20L2) was > 100 µM (inactive) and the GI50 (ACHN) was > 100 µM (inactive). For the same compound, the GI50 (IGROV-1) was > 100 µM (inactive), the GI50 (CCRF-CEM) was > 100 µM (inactive) and the GI50 (KM12) was > 100 µM (inactive). For the same compound, the GI50 (HL-60) was > 100 µM (inactive), the GI50 (LXFL 529) was > 100 µM (inactive) and the GI50 (SF-268) was > 100 µM (inactive). The GI50 (SK-OV-3) was > 100 µM (inactive), the GI50 (UACC-257) was > 100 µM (inactive) and the GI50 (U-251) was > 100 µM (inactive). The GI50 (OVCAR-3) was > 100 µM (inactive), the GI50 (OVCAR-8) was > 100 µM (inactive) and the GI50 (SK-MEL-2) was > 100 µM (inactive). The GI50 (Malme-3M) was > 100 µM (inactive), the GI50 (SK-MEL-5) was > 100 µM (inactive) and the GI50 (NCI-H226) was > 100 µM (inactive). The GI50 (OVCAR-4) was > 100 µM (inactive) and the GI50 (UACC-62) was > 100 µM (inactive).

For `CCN(CC)CCNc1ccc2ncn3c4ccccc4c(=O)c1c23`, the GI50 (SNB-19) was 9.84 µM (inactive), the GI50 (786-0) was 3.43 µM (inactive) and the GI50 (DMS-114) was 5.07 µM (inactive). For the same compound, the GI50 (SNB-78) was 3.03 µM (inactive), the GI50 (HOP-18) was 10 µM (inactive) and the GI50 (DLD-1) was 3.5 µM (inactive). For the same compound, the GI50 (SF-539) was 5.86 µM (inactive), the GI50 (MOLT-4) was 2 µM (inactive) and the GI50 (M19-MEL) was 3.63 µM (inactive). For the same compound, the GI50 (SN12C) was 5.36 µM (inactive), the GI50 (HT-29) was 2.2 µM (inactive) and the GI50 (OVCAR-5) was 7.93 µM (inactive). The GI50 (NCI-H522) was 2.26 µM (inactive), the GI50 (HOP-62) was 5.81 µM (inactive) and the GI50 (A549) was 2.85 µM (inactive). The GI50 (HOP-92) was 2.28 µM (inactive), the GI50 (CAKI-1) was 2.06 µM (inactive) and the GI50 (A498) was 6.7 µM (inactive). The GI50 (M14) was 4.91 µM (inactive), the GI50 (SR) was 1.63 µM (inactive) and the GI50 (HCT-116) was 0.916 µM (active). For the same compound, the GI50 (SW-620) was 2.52 µM (inactive), the GI50 (HCT-15) was 3.96 µM and the GI50 (TK-10) was 7.41 µM (inactive). The GI50 (NCI-H23) was 7.06 µM (inactive), the GI50 (SF-295) was 3.58 µM (inactive) and the GI50 (NCI-H460) was 2.26 µM (inactive). For the same compound, the GI50 (UO-31) was 2.08 µM (inactive), the GI50 (SK-MEL-28) was 4.12 µM (inactive) and the GI50 (LOX IMVI) was 1.64 µM (inactive). For the same compound, the GI50 (K562) was 8.49 µM (inactive), the GI50 (RPMI-8226) was 4.59 µM (inactive) and the GI50 (COLO 205) was 1.87 µM (inactive). For the same compound, the GI50 (KM-20L2) was 3.85 µM (inactive), the GI50 (ACHN) was 2.24 µM (inactive) and the GI50 (IGROV-1) was 3.83 µM (inactive). The GI50 (CCRF-CEM) was 4.1 µM (inactive), the GI50 (KM12) was 5.2 µM (inactive) and the GI50 (HL-60) was 5.74 µM (inactive). The GI50 (LXFL 529) was 3.77 µM (inactive), the GI50 (SF-268) was 3.99 µM (inactive) and the GI50 (SK-OV-3) was 2.45 µM (inactive). The GI50 (UACC-257) was 4.23 µM (inactive), the GI50 (U-251) was 4.52 µM (inactive) and the GI50 (OVCAR-3) was 12.8 µM (inactive). The GI50 (OVCAR-8) was 2.77 µM (inactive), the GI50 (SK-MEL-2) was 5.01 µM (inactive) and the GI50 (Malme-3M) was 3.63 µM (inactive). For the same compound, the GI50 (SK-MEL-5) was 3.52 µM (inactive), the GI50 (NCI-H226) was 2.18 µM (inactive) and the GI50 (OVCAR-4) was 2.96 µM (inactive). The GI50 (UACC-62) was 3.91 µM (inactive).
